Reference: ChEMBL document CHEMBL6127044, “An insight into G-quadruplexes: Identification and potential therapeutic targets in livestock viruses” (Eur J Med Chem, 2024)

Assays:
[1] = tested on: Vero; experiment: Cytotoxicity against African green monkey Vero cells at 50 uM incubated for 24 hrs by MTT assay relative to control; format: toxicity, cell-based; details: chlorocebus sabaeus
[2] = tested on: Porcine epidemic diarrhea virus; experiment: Antiviral activity against Porcine epidemic diarrhea virus infected in African green monkey Vero E6 cells assessed as inhibition of viral replication at 25 uM relative to control; format: functional; details: Vero C1008

| Compound | Activity [1] [%] | inhibition at 25 µM [2] [%] |
| --- | --- | --- |
| C[n+]1cc(NC(=O)c2ccc3ccc4ccc(C(=O)Nc5cc6ccccc6[n+](C)c5)nc4c3n2)cc2ccccc21 | 80 | – |
| NCCOc1cc(C(=O)Nc2cc(OCCN)c3ccccc3n2)nc(C(=O)Nc2cc(OCCN)c3ccccc3n2)c1 [PYRIDOSTATIN] | 80 | 99 |
| C[n+]1ccc(-c2c3nc(c(-c4cc[n+](C)cc4)c4ccc([nH]4)c(-c4cc[n+](C)cc4)c4nc(c(-c5cc[n+](C)cc5)c5ccc2[nH]5)C=C4)C=C3)cc1 [TMPYP4 CHLORIDE] | – | 99 |
